# Laboratory results taken from patent US12643879B2, “Functionalized heterocyclic compounds as modulators of stimulator of interferon genes (STING)” (RYVU THERAPEUTICS S.A., priority 2019, dated 2026).
# Where a name gives a salt, the structure may show the parent alone. Read-outs that look alike come from different tables or passages of the source.
# Tests used:
# [1] = system: NF-κB pathway in THP-1 dual cells; assay: THP-1 Dual reporter assay, NF-κB pathway (SEAP); type: cell-based; conditions: Homo sapiens, THP1-Dual; 18 h stimulation, absorbance at 630 or 655 nm; read-out: THP1 Dual EC50 (μM) NFkB
# Description: (§1) Compounds of the present invention were tested for their activity using THP-1 dual cells (Invivogen, cat no. thpd-nfis) allowing for simultaneous study of NF-κB pathway and the interferon regulatory factor (IRF) pathway. THP-1 dual cells contain luciferase reporter gene under the control of an ISG54 (interferon-stimulated gene) minimal promoter in conjunction with five interferon-stimulated response elements and a secreted embryonic alkaline phosphatase reporter gene under the control an IFN (interferon)-β minimal promoter fused to five copies of the NF-κB consensus transcriptional response element with three copies of the c-Rel binding site. Following 18 h of stimulation with STING agonist, medium was collected and transferred onto fresh cell culture plate. To verify activity of the IRF pathway, luminescence activity was measured with standard laboratory plate reader immediately after addition 10 μl of the medium to 40 or 50 μl of luminescence reagent (Invivogen, cat. No. rep-qlc2). To verify activity of NF-κB pathway, 10 or 20 μl of the medium was mixed with 80 μl of a detection medium (Invivogen, cat. No. rep-qb2) and incubated for 1 or 2 hours at 37° C. in a humidified atmosphere containing 5% CO2. Next, absorbance at 630 or 655 nm was recorded using standard laboratory plate reader.
# [2] = system: interferon regulatory factor (IRF) pathway in THP-1 dual cells; assay: THP-1 Dual reporter assay, IRF pathway (luciferase); type: cell-based; conditions: 18 h stimulation, luminescence, read-out: THP1 Dual EC50 (μM) IRF
# Description: as §1
EC50 [1] [µM],"EC50 ([2]; Homo sapiens, THP1-Dual) [µM]",EC50 [2] [µM],SMILES
< 1,< 1,,"Cc1ccc(N2CCC[C@H](N(Cc3ccnc(C)c3)Cc3cn(C)c4cc(N5CC[C@@H](N)C(F)(F)C5)ccc4c3=O)C2)cn1 (single isomer, unassigned) [Example 50]"
< 1,< 1,,"Cc1ccc(N2CCC[C@H](N(Cc3ccnc(C)c3)Cc3cn(C4CC4)c4cc(N5CC[C@@H](N)C(F)(F)C5)c(F)cc4c3=O)C2)cn1.Cl (single isomer, unassigned) [Example 56, 7-[(4R)-4-amino-3,3-difluoropiperidin-1-yl]-1-cyclopropyl-6-fluoro-3-({[(3S)-1-(6-methylpyridin-3-yl)piperidin-3-yl][(2-methylpyridin-4-yl)methyl]amino}methyl)-1,4-dihydroquinolin-4-one]"
< 1,< 1,,"Cc1ccc(N2CCC[C@H](N(Cc3ccnc(C)c3)Cc3cn(C4CC4)c4cc(N5CC[C@H](N)C(F)(F)C5)c(F)cc4c3=O)C2)cn1.Cl (single isomer, unassigned) [Example 57, 7-[(4S)-4-amino-3,3-difluoropiperidin-1-yl]-1-cyclopropyl-6-fluoro-3-({[(3S)-1-(6-methylpyridin-3-yl)piperidin-3-yl][(2-methylpyridin-4-yl)methyl]amino}methyl)-1,4-dihydroquinolin-4-one]"
< 1,< 1,,"Cc1ccc(N2CCC[C@H](N(Cc3ccnc(C)c3)Cc3cn(C4CC4)c4cc(N5CCO[C@@H](CO)C5)c(F)cc4c3=O)C2)cn1 (single isomer, unassigned) [Example 72]"
< 1,< 1,,"Cc1ccc(N2CCC[C@H](N(Cc3ccnc(C)c3)Cc3cn(C4CC4)c4cc(N5CCO[C@H](CO)C5)c(F)cc4c3=O)C2)cn1 (single isomer, unassigned) [Example 73]"
,,< 1,"Cc1cc(CN(Cc2cn(C3CC3)c3cc(N4CCC(CO)C4)c(F)cc3c2=O)[C@H]2CCCN(c3cccnc3)C2)ccn1 (stereo in doubt) [Example 88, 1-cyclopropyl-6-fluoro-7-[(3R)-3-(hydroxymethyl)pyrrolidin-1-yl]-3-({[(2-methylpyridin-4-yl)methyl][(3S)-1-(pyridin-3-yl)piperidin-3-yl]amino}methyl)-1,4-dihydroquinolin-4-one hydrochloride]"
< 1,< 1,,"C#CCOCCOCCOCCOCCOCCC(=O)Nc1ccc(N2CCC[C@H](N(Cc3ccnc(OC)c3)Cc3cn(C4CC4)c4cc(F)c(F)cc4c3=O)C2)cn1 [Example 4A, N-{5-[(3S)-3-{[(1-cyclopropyl-6,7-difluoro-4-oxo-1,4-dihydroquinolin-3-yl)methyl][(2-methoxypyridin-4-yl)methyl]amino}piperidin-1-yl]pyridin-2-yl}-4,7,10,13,16-pentaoxanonadec-18-ynamide]"
> 10,> 10,,"Cc1ccc(N2CCC[C@H](N(Cc3ccnc(C)c3)Cc3cn(C4CC4)c4cc(OCCNC(=O)OCc5ccc(NC(=O)[C@H](CCCNC(N)=O)NC(=O)[C@@H](NC(=O)CCOCCOCCOCCN=[N+]=[N-])C(C)C)cc5)c(F)cc4c3=O)C2)cn1 [Example 10A, {4-[(2S)-2-[(2S)-2-(3-{2-[2-(2-azidoethoxy)ethoxy]ethoxy}propanamido)-3-methyl-butanamido]-5-(carbamoylamino)pentanamido]phenyl}methyl N-(2-{[1-cyclopropyl-6-fluoro-3-({[(3S)-1-(6-methylpyridin-3-yl)piperidin-3-yl][(2-methylpyridin-4-yl)methyl]amino}methyl)-4-oxo-1,4-dihydroquinolin-7-yl]oxy}ethyl)carbamate]"
1 to 10,1 to 10,,"Cc1ccc(N2CCC[C@H](N(Cc3ccnc(C)c3)Cc3cn(C4CC4)c4cc(OCCN(C)C(=O)COCCOCCN)c(F)cc4c3=O)C2)cn1 [Example 11A, 2-[2-(2-aminoethoxy)ethoxy]-N-(2-{[1-cyclopropyl-6-fluoro-3-({[(3S)-1-(6-methylpyridin-3-yl)piperidin-3-yl][(2-methylpyridin-4-yl)methyl]amino}methyl)-4-oxo-1,4-dihydroquinolin-7-yl]oxy}ethyl)-N-methylacetamide]"
1 to 10,1 to 10,,"Cc1ccc(N2CCC[C@H](N(Cc3ccnc(C)c3)Cc3cn(C4CC4)c4cc(OCCN(C)C(=O)CCOCCOCCOCCN)c(F)cc4c3=O)C2)cn1 [Example 11B, 3-{2-[2-(2-aminoethoxy)ethoxy]ethoxy}-N-(2-{[1-cyclopropyl-6-fluoro-3-({[(3S)-1-(6-methylpyridin-3-yl)piperidin-3-yl][(2-methylpyridin-4-yl)methyl]amino}methyl)-4-oxo-1,4-dihydroquinolin-7-yl]oxy}ethyl)-N-methylpropanamide]"
1 to 10,1 to 10,,"Cc1ccc(N2CCC[C@H](N(Cc3ccnc(C)c3)Cc3cn(C4CC4)c4cc(OCCN(C)CCOCCOCCOCCOCCN)c(F)cc4c3=O)C2)cn1 [Example 11C, 7-[(1-amino-15-methyl-3,6,9,12-tetraoxa-15-azaheptadecan-17-yl)oxy]-1-cyclopropyl-6-fluoro-3-({[(3S)-1-(6-methylpyridin-3-yl)piperidin-3-yl][(2-methylpyridin-4-yl)methyl]amino}methyl)-1,4-dihydroquinolin-4-one]"
1 to 10,1 to 10,,"Cc1ccc(N2CCC[C@H](N(Cc3ccnc(C)c3)Cc3cn(C4CC4)c4cc(OCCN(C)C(=O)CCOCCOCCOCCOCCOCCOCCOCCN)c(F)cc4c3=O)C2)cn1 [Example 11D, 1-amino-N-(2-{[1-cyclopropyl-6-fluoro-3-({[(3S)-1-(6-methylpyridin-3-yl)piperidin-3-yl][(2-methylpyridin-4-yl)methyl]amino}methyl)-4-oxo-1,4-dihydroquinolin-7-yl]oxy}ethyl)-N-methyl-3,6,9,12,15,18,21-heptaoxatetracosan-24-amide]"
1 to 10,1 to 10,,"Cc1ccc(N2CCC[C@H](N(Cc3ccnc(C)c3)Cc3cn(C4CC4)c4cc(OCCN(C)C(=O)CCOCCOCCOCCOCCOCCOCCOCCC(=O)O)c(F)cc4c3=O)C2)cn1 [Example 11E, 1-[(2-{[1-cyclopropyl-6-fluoro-3-({[(3S)-1-(6-methylpyridin-3-yl)piperidin-3-yl][(2-methylpyridin-4-yl)methyl]amino}methyl)-4-oxo-1,4-dihydroquinolin-7-yl]oxy}ethyl)(methyl)carbamoyl]-3,6,9,12,15,18,21-heptaoxatetracosan-24-oic acid]"
< 1,< 1,,"C#CCOCCOCCOCCOCCOCCC(=O)Nc1ccc(COC(=O)N(C)CCOc2cc3c(cc2F)c(=O)c(CN(Cc2ccnc(C)c2)[C@H]2CCCN(c4ccc(C)nc4)C2)cn3C2CC2)cc1 [Example 11F, [4-(4,7,10,13,16-pentaoxanonadec-18-ynamido)phenyl]methyl N-(2-{[1-cyclopropyl-6-fluoro-3-({[(3S)-1-(6-methylpyridin-3-yl)piperidin-3-yl][(2-methylpyridin-4-yl)methyl]amino}methyl)-4-oxo-1,4-dihydroquinolin-7-yl]oxy}ethyl)-N-methylcarbamate]"
